Data published in patent US20180186814A1, “TRICYCLIC COMPOUND HAVING SULFINYL OR SULFONYL” (Shionogi & Co., Ltd., priority 2015, published 2018).
Converted amounts (≈) assume the structure as drawn.

How the values were obtained:
Format in all cases: cell-based
E. cloacae SR36276 = experiment: MIC by microbroth dilution (CLSI), strain No. 5; details: E. cloacae SR36276, AmpC, highly AmpC-producing strain, ceftazidime-resistant, cefepime-sensitive, cation-adjusted Mueller-Hinton broth; for MIC: Enterobacter cloacae, read-out: minimum inhibitory concentration (MIC), Strain No. 5
Method: (§1) The minimum inhibitory concentration (MIC) was measured by the microbroth dilution method in accordance with the procedures recommended by CLSI (Clinical and Laboratory Standards Institute) using 1×10^5 CFU/mL as an inoculum dose and a cation-adjusted Mueller-Hinton broth as a test medium.
(§2) The strains used are as described in the table below.

K. pneumoniae NCTC13443 = experiment: MIC by microbroth dilution (CLSI), strain No. 4; details: K. pneumoniae NCTC13443, NDM-1, MBL-producing strain, carbapenem-resistant, cation-adjusted Mueller-Hinton broth; for MIC: Klebsiella pneumoniae, read-out: minimum inhibitory concentration (MIC), Strain No. 4
Method: as §1, §2

E. cloacae ATCC13047 = experiment: MIC by microbroth dilution (CLSI), strain No. 1; details: E. cloacae ATCC13047, AmpC, ceftazidime-resistant, cefepime-sensitive, cation-adjusted Mueller-Hinton broth; for MIC: Enterobacter cloacae, read-out: minimum inhibitory concentration (MIC), Strain No. 1
Method: as §1, §2

K. pneumoniae SR01453 = experiment: MIC by microbroth dilution (CLSI), strain No. 3; details: K. pneumoniae SR01453, NDM-1, MBL-producing strain, carbapenem-resistant, cation-adjusted Mueller-Hinton broth; for MIC: Klebsiella pneumoniae, read-out: minimum inhibitory concentration (MIC), Strain No. 3
Method: as §1, §2

E. coli SR09613 = experiment: MIC by microbroth dilution (CLSI), strain No. 6; details: for MIC: Escherichia coli, SR09613, read-out: minimum inhibitory concentration (MIC), Strain No. 6; for minimum inhibitory concentration (MIC), Strain No. 6: E. coli SR09613, CMY-2 type, plasmid AmpC-producing strain, ceftazidime-resistant, cefepime-sensitive, cation-adjusted Mueller-Hinton broth
Method: as §1, §2

E. coli SR09616 = experiment: MIC by microbroth dilution (CLSI), strain No. 7; details: for MIC: Escherichia coli, SR09616, read-out: minimum inhibitory concentration (MIC), Strain No. 7; for minimum inhibitory concentration (MIC), Strain No. 7: E. coli SR09616, CMY-2 type, plasmid AmpC-producing strain, ceftazidime-resistant, cefepime-sensitive, cation-adjusted Mueller-Hinton broth
Method: as §1, §2

Compound	MIC (E. cloacae SR36276) [µg/mL]	MIC (K. pneumoniae NCTC13443) [µg/mL]	MIC (E. cloacae ATCC13047) [µg/mL]	MIC (K. pneumoniae SR01453) [µg/mL]	MIC (E. coli SR09613) [µg/mL]	MIC (E. coli SR09616) [µg/mL]	minimum inhibitory concentration (MIC), Strain No. 5 (E. cloacae SR36276) [µg/mL]	minimum inhibitory concentration (MIC), Strain No. 4 (K. pneumoniae NCTC13443) [µg/mL]	minimum inhibitory concentration (MIC), Strain No. 1 (E. cloacae ATCC13047) [µg/mL]	minimum inhibitory concentration (MIC), Strain No. 3 (K. pneumoniae SR01453) [µg/mL]	minimum inhibitory concentration (MIC), Strain No. 6 (E. coli SR09613) [µg/mL]	minimum inhibitory concentration (MIC), Strain No. 7 (E. coli SR09616) [µg/mL]
N#CCO/N=C(\C(=O)N[C@@H]1C(=O)N2[C@@H]1[S@@+]([O-])C[C@@H]1CC(=O)O[C@@]12C(=O)O)c1csc(N)n1 [Compound I-039]	2 (≈ 4.15 µM)	4 (≈ 8.29 µM)	0.5 (≈ 1.04 µM)	0.125 (≈ 0.259 µM)	0.25 (≈ 0.518 µM)	1 (≈ 2.07 µM)	–	–	–	–	–	–
Nc1nc(/C(=N/OC[C@@H](O)CO)C(=O)N[C@@H]2C(=O)N3[C@@H]2[S@@+]([O-])C[C@@H]2CC(=O)O[C@@]23C(=O)O)cs1 [Compound I-044]	1 (≈ 1.93 µM)	2 (≈ 3.86 µM)	0.5 (≈ 0.966 µM)	1 (≈ 1.93 µM)	0.25 (≈ 0.483 µM)	1 (≈ 1.93 µM)	–	–	–	–	–	–
Nc1nc(/C(=N/OCS(=O)(=O)O)C(=O)N[C@@H]2C(=O)N3[C@@H]2[S@@+](O)C[C@@H]2CC(=O)O[C@@]23C(=O)O)cs1 [Compound I-047]	–	–	–	–	–	–	0.25	2	0.25	0.25	0.063	0.25
CONC(=O)CO/N=C(\C(=O)N[C@@H]1C(=O)N2[C@@H]1[S+](O)C[C@@H]1CC(=O)O[C@@]12C(=O)O)c1csc(N)n1 (some centres unmarked) [Compound I-048]	1	4	0.25	0.125	0.125	0.5	–	–	–	–	–	–
Nc1nc(/C(=N/OCC(=O)NO)C(=O)N[C@@H]2C(=O)N3[C@@H]2[S+](O)C[C@@H]2CC(=O)O[C@@]23C(=O)O)cs1 (some centres unmarked) [Compound I-049]	–	–	–	–	–	–	0.5	2	0.125	0.063	0.063	0.5
Nc1nc(/C(=N/OC[C@H](O)CO)C(=O)N[C@@H]2C(=O)N3[C@@H]2[S@@+]([O-])C[C@@H]2CC(=O)O[C@@]23C(=O)O)cs1 [Compound I-050]	1 (≈ 1.93 µM)	4 (≈ 7.73 µM)	0.5 (≈ 0.966 µM)	0.5 (≈ 0.966 µM)	0.5 (≈ 0.966 µM)	4 (≈ 7.73 µM)	–	–	–	–	–	–
Nc1nc(/C(=N/OC(CO)CO)C(=O)N[C@@H]2C(=O)N3[C@@H]2[S@@+]([O-])C[C@@H]2CC(=O)O[C@@]23C(=O)O)cs1 [Compound I-052]	0.125 (≈ 0.242 µM)	0.5 (≈ 0.966 µM)	0.063 (≈ 0.122 µM)	≤ 0.031	≤ 0.031	0.063 (≈ 0.122 µM)	–	–	–	–	–	–
NC(=O)NCCO/N=C(\C(=O)N[C@@H]1C(=O)N2[C@@H]1[S@@+]([O-])C[C@@H]1CC(=O)O[C@@]12C(=O)O)c1csc(N)n1 [Compound I-056]	2 (≈ 3.78 µM)	–	0.5 (≈ 0.944 µM)	0.5 (≈ 0.944 µM)	0.5 (≈ 0.944 µM)	2 (≈ 3.78 µM)	–	–	–	–	–	–
